The record followed here is patent publication US11065266B2, “Method of treating melanoma using an inhibitor of an atypical protein kinase C” (UNIVERSITY OF SOUTH FLORIDA, priority 2016, dated 2021).

Experiment [1] relates to malignant melanoma cells (SK-MEL-2 and MeWo). The experiment is described as follows: Viable cell counts, malignant cell lines taken together. The experiment is classed as cell-based. Particulars: Homo sapiens; for IC50: from dose curves of cell proliferation, read-out: half maximal inhibitory concentration (IC50). How it is done: Dose curves (inhibitor concentrations vs cell population after 3 days) for ICA-1, ACPD, DND and ζ-Stat were obtained for all 3 cell lines as follows. PCS-200-013, SK-MEL-2 and MeWo cells (4×10^4) were cultured in 25 cm^2 flasks and treated with either equal volume of sterile water (vehicle control). Cells were treated every 24 h during 3 day incubation period and cells were then lifted using Trypsin-EDTA solution (1.5 mL/flask) and neutralized with the equal volume of media. Subsequently, live cells were counted using the Scepter, an automated cell counter from Millipore (Billerica, Mass.). The cell growth inhibition for all inhibitors for the two malignant cell lines (SK-MEL-2 and MeWo) were quantified by counting the viable cells at 24 hour intervals. Cell counts obtained from Scepter was compared with the counts obtained from the Cellometer Vision from Nexcelom Bioscience (Lawrence, Mass.).
Dose curves for ACPD and DNDA were obtained to investigate the effect on cell proliferation of normal and malignant cell lines over a wide range of concentrations. […] ACPD decreased proliferation by 20% for 1.5 μM (p≤0.01), 48% for 2.5 μM (p≤0.01) and 51% for 3.5 μM (p≤0.001)(FIG. 5B). DNDA decreased by 17% for 500 nM (p≤0.01), 24% for 1.5 μM(p≤0.01), 52%) for 2.5 µM (p≤0.01) and 57 for 3.5 μM (p≤0.01)(FIG. 5C) in SK-MEL-2 cells. ACPD decreased proliferation by 28% for 500 nM (p≤0.01), 41% for 1.5 μM (p≤0.01), 54% for 2.5 µM (p≤0. 01) and 58% for 3.5 μM (p≤0.01) (FIG. 5D). DNDA decreased proliferation by 37% for 500 nM (p≤0.01), 41% for 1.5 μM (p≤0.01), 46% for 2.5 μM (p≤0.01) and 48% for 3.5 μM (p≤0.01) (FIG. 5E) in the MeWo cells.
To test the effects of ζ-Stat on malignant cells approximately 4×10^4 of cells were cultured in 25 cm2 flasks and treated with either equal volume of sterile water (control) or ζ-Stat (0.1-10 μM). Additional doses of sterile water or inhibitor were supplied every 24 h during 3 day incubation period. Subsequently, cells were lifted and counted. Cells were quantified by counting the viable cells at 24 hour intervals. […] N=3 experiments were performed for each cell line and mean±SD are plotted.

The next experiment has as its system MeWo cells. Description: Western blot of protein levels. Also noted: concentration or dose not given beside the values. The settings on record: vs respective control. Type of experiment: cell-based, human. How it is done: Approximately 2×10^5 cells from PCS-200-013 and SK-MEL-2 cell lines were plated in T25 flasks until they become 70% confluent. Confluent cells were semi-synchronized by contact inhibition and serum starvation for 48 hrs. Subsequently, cells were incubated with serum and atypical inhibitors. The cells were removed at specific times and were placed in ice to terminate the incubation. Cells were washed at least two times with ice cold DPBS. Cells were then scrapped, re-suspended and sonicated in 500 μL of homogenization buffer (50 mM HEPES—pH 7.5), 150 mM NaCl, 0.1% Triton X, 1 mM EDTA (ethylenediaminetetraacetic acid), 2 mM EGTA [glycol-bis (2-aminoethylether)-N, N, N′,N′-tetraacetic acid], 0.1 mM orthovanadate, 1 mM NaF, 2 mM PMSF (phenylmethylsulphonylfluoride), 1 mM DTT (dithiothreitol) and 0.15 U/mL aprotinin. Cell suspensions was then sonicated and centrifuged at 100,000 g for 30 minutes. The protein concentrations was determined using Bradford method. Subsequently, approximately 800 μg of proteins were immunoprecipitated with the antibody against desired protein. In some cases cell lysates were suspended with anti-HFS-1 antibody, rocking overnight at 4° C. Agarose beds were added after 24 hrs. Then the complex of cell lysate-anti HSF-1 antibody-agarose beads was rocked at 4° C. for 2 hrs. After washing the beads, approximately […] the sample loading buffer was added to dissolve all the protein on the beads. Proteins were then separated on sodium dodecyl sulfate polyacrylamide gel electrophoresis (SDS-PAGE) and transblotted followed by immunoblotting with anti-PKC-ζ or anti-PKC-ι or anti-HSF-1 antibody or phosphospecific antibodies. Immunoreactive bands were visualized with enhanced chemiluminescence.
Western blots (WB) were performed to investigate the effect of ACPD and DNDA on the expression of aPKCs on malignant melanoma. […] DNDA decreased the levels of PKC-ι by 52%, pPKC-ι by 33% in SK-MEL-2 cells and by 27% of PKC-ι and pPKC-ι by 20% in MeWo cells.
DNDA reduced the levels of PKC-ζ by 33%, pPKC-ζ by only 17% in SK-MEL-2 cells and by 60% of PKC-ζ and pPKC-ζ by 29% in MeWo cells. All values (percent) were calculated compared to their respective control in Western blot. B-actin was used as the internal control to ensure that equal amounts of proteins were loaded in each lane in SDS-PAGE.

Regarding `CC(=O)C1=C(O)CCC1=O` [ACPD, 2-acetyl-1,3-cyclopentanedione], in experiment [1], the IC50 is about 2.5 µM. In addition, in the experiment with MeWo cells, the “reduction of PKC-ζ level” value is 42%, the “reduction of PKC-ι level” value is 46%, the “reduction of pPKC-ζ level” value worked out at 23% and the “reduction of pPKC-ι level” value was found to be 26%.

As to `Nc1c(S(=O)(=O)O)cc2cc(S(=O)(=O)O)ccc2c1N` [DNDA, 3,4-diamino-2,7-naphthalenedisulfonic acid], in experiment [1], the IC50 is about 2.5 µM. Moreover, in the experiment with MeWo cells, the “reduction of PKC-ζ level” value was 60%, the “reduction of PKC-ι level” value was found to be 27%, the “reduction of pPKC-ζ level” value was 29% and the “reduction of pPKC-ι level” value is 20%.

As for `O=S(=O)(O)c1cc(O)c2c(S(=O)(=O)O)cc(S(=O)(=O)O)cc2c1` [ζ-Stat, 8-hydroxy-1,3,6-naphthalenetrisulfonic acid], the cytotoxicity at 2.5 µM in experiment [1] (2.5 μM, read-out: inhibition of cell viability according to cell counts) lay in the range of 20 to 25%. Moreover, the cytotoxicity at 5 µM in experiment [1] (5 μM, read-out: inhibition of cell viability according to cell counts) is about 50%. The cytotoxicity at 10 µM in experiment [1] (10 μM, read-out: inhibition of cell viability according to cell counts) is about 50%.
